Laboratory results as given in patent US10206907B2, “Compounds useful for the treatment of degenerative and inflammatory diseases” (GALAPAGOS NV, priority 2008, dated 2019).

Legend:
[1] = molecular target: Recombinant human JAK2 catalytic domain (Homo sapiens (Human), UniProt O60674); experiment: JAK2 inhibition assay; format: biochemical; settings: semi-quantitative score
Procedure: After 90 min at 30° C., reactions were stopped by adding of 25 μL/well of 150 mM phosphoric acid. […] Plates were washed 6 times with 300 μL per well of a 75 mM phosphoric acid solution and the bottom of the plates was sealed. 40 μL/well of Microscint-20 was added, the top of the plates was sealed and readout was performed using the Topcount (Perkin Elmer). Kinase activity was calculated by subtracting counts per minute (cpm) obtained in the presence of a positive control inhibitor (10 μM staurosporine) from cpm obtained in the presence of vehicle. The ability of a test compound to inhibit this activity was determined as: Percentage inhibition=((cpm determined for sample with test compound present−cpm determined for sample with positive control inhibitor) divided by (cpm determined in the presence of vehicle−cpm determined for sample with positive control inhibitor))*100%.
Dose dilution series were prepared for the compounds enabling the testing of dose-response effects in the JAK2 assay and the calculation of the IC50 for each compound.

[2] = molecular target: Recombinant human JAK1 catalytic domain (Homo sapiens (Human), UniProt P23458); experiment: JAK1 inhibition assay; format: biochemical; settings: semi-quantitative score
Chain of Recombinant human JAK1 catalytic domain (P23458 850-1154): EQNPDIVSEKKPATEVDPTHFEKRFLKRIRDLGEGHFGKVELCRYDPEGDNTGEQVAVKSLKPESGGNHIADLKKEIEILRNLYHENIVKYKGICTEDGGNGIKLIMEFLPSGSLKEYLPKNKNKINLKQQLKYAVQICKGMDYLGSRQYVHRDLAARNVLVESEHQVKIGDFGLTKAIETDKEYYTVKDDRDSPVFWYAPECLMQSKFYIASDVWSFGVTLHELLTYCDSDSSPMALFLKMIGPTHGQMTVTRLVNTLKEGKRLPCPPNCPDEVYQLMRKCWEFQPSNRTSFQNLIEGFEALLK
Method in brief: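 IC50 values come from dose-response series, with each point expressed as percent inhibition of cpm. Vehicle sets full activity and 10 μM staurosporine sets background. Incorporated radioactivity counted by scintillation after washing with 75 mM phosphoric acid.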

Chain of Recombinant human JAK2 catalytic domain (O60674 808-1132): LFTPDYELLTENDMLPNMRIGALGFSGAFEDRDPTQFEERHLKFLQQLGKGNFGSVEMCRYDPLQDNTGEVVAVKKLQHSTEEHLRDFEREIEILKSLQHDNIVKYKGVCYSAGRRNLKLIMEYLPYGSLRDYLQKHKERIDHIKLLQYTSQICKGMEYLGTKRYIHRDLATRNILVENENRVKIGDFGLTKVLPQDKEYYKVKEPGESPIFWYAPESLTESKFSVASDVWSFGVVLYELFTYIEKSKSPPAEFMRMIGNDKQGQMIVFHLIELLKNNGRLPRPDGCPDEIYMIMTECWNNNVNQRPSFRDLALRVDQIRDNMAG

SMILES	IC50 [1] [nM]	IC50 [2] [nM]
O=C(Nc1nc2cccc(-c3ccc(CN4CC(N5CCOCC5)C4)cc3)n2n1)C1CC1 [Compound 300, Cyclopropanecarboxylic acid {5-[4-(3-morpholin-4-yl-azetidin-1-ylmethyl)-phenyl]-[1,2,4]triazolo[1,5-a]pyridin-2-yl}-amide]	> 1000	> 1000
CC1(C)COCCN1C(=O)c1ccc(-c2cccc3nc(NC(=O)C4CC4)nn23)cc1 [Compound 216, Cyclopropanecarboxylic acid {5-[4-(3,3-dimethyl-morpholine-4-carbonyl)-phenyl]-[1,2,4]triazolo[1,5-a]pyridin-2-yl}-amide]	101 to 500	101 to 500
O=C(Nc1nc2cccc(-c3ccc(CN4CC(F)(F)C4)cc3)n2n1)C1CC1 [Compound 315, Cyclopropanecarboxylic acid {5-[4-(3,3-difluoro-azetidin-1-ylmethyl)-phenyl]-[1,2,4]triazolo[1,5-a]pyridin-2-yl}-amide]	101 to 500	101 to 500
CN(C)CC1CN(Cc2ccc(-c3cccc4nc(NC(=O)C5CC5)nn34)cc2)C1 [Compound 298, Cyclopropanecarboxylic acid {5-[4-(3-dimethylaminomethyl-azetidin-1-ylmethyl)-phenyl]-[1,2,4]triazolo[1,5-a]pyridin-2-yl}-amide]	> 1000	> 1000
CCOC1CCN(Cc2ccc(-c3cccc4nc(NC(=O)C5CC5)nn34)cc2)CC1 [Compound 282, Cyclopropanecarboxylic acid {5-[4-(4-ethoxy-piperidin-1-ylmethyl)-phenyl]-[1,2,4]triazolo[1,5-a]pyridin-2-yl}-amide]	> 1000	101 to 500
O=C1CN(Cc2ccc(-c3cccc4nc(NC(=O)C5CC5)nn34)cc2)CCN1 [Compound 311, Cyclopropanecarboxylic acid {5-[4-(3-oxo-piperazin-1-ylmethyl)-phenyl]-[1,2,4]triazolo[1,5-a]pyridin-2-yl}-amide]	101 to 500	101 to 500
O=C(Nc1nc2cccc(-c3ccc(CN4CCC(CO)CC4)cc3)n2n1)C1CC1 [Compound 250, Cyclopropanecarboxylic acid {5-[4-(4-hydroxymethyl-piperidin-1-ylmethyl)-phenyl]-[1,2,4]triazolo[1,5-a]pyridin-2-yl}-amide]	501 to 1000	101 to 500
C[C@@H]1CN(Cc2ccc(-c3cccc4nc(NC(=O)C5CC5)nn34)cc2)C[C@H](C)O1 [Compound 214, Cyclopropanecarboxylic acid {5-[4-((2R,6S)-2,6-dimethyl-morpholin-4-ylmethyl)-phenyl]-[1,2,4]triazolo[1,5-a]pyridin-2-yl}-amide]	101 to 500	101 to 500
CC(C)(O)C1CCN(Cc2ccc(-c3cccc4nc(NC(=O)C5CC5)nn34)cc2)CC1 [Compound 243, Cyclopropanecarboxylic acid (5-{4-[4-(1-hydroxy-1-methyl-ethyl)-piperidin-1-ylmethyl]-phenyl}-[1,2,4]triazolo[1,5-a]pyridin-2-yl)-amide]	501 to 1000	101 to 500
Cn1nc(C2CC2)cc1NC(=O)c1ccc(-c2cccc3nc(NC(=O)C4CC4)nn23)cc1 [Compound 218, 4-[2-(Cyclopropanecarbonyl-amino)-[1,2,4]triazolo[1,5-a]pyridin-5-yl]-N-(5-cyclopropyl-2-methyl-2H-pyrazol-3-yl)-benzamide]	101 to 500	101 to 500
O=C(Nc1nc2cccc(-c3ccc(CC(=O)N4CCC4)cc3)n2n1)C1CC1 [Compound 318, Cyclopropanecarboxylic acid {5-[4-(2-azetidin-1-yl-2-oxo-ethyl)-phenyl]-[1,2,4]triazolo[1,5-a]pyridin-2-yl}-amide]	101 to 500	101 to 500
CCN(CC)C1CCN(C(=O)c2ccc(-c3cccc4nc(NC(=O)C5CC5)nn34)cc2)C1 (stereo not drawn) [Compound 285, Cyclopropanecarboxylic acid {5-[4-(3-diethylamino-pyrrolidine-1-carbonyl)-phenyl]-[1,2,4]triazolo[1,5-a]pyridin-2-yl}-amide]	> 1000	101 to 500
CC(=O)NC1CN(C(=O)Cc2ccc(-c3cccc4nc(NC(=O)C5CC5)nn34)cc2)C1 [Compound 322, Cyclopropanecarboxylic acid (5-{4-[2-(3-acetylamino-azetidin-1-yl)-2-oxo-ethyl]-phenyl}-[1,2,4]triazolo[1,5-a]pyridin-2-yl)-amide]	> 1000	> 1000
CC(C)(C)OC(=O)NC1CN(Cc2ccc(-c3cccc4nc(NC(=O)C5CC5)nn34)cc2)C1 [Compound 279, (1-{4-[2-(Cyclopropanecarbonyl-amino)-[1,2,4]triazolo[1,5-a]pyridin-5-yl]-benzyl}-azetidin-3-yl)-carbamic acid tert-butyl ester]	> 1000	101 to 500
NC(=O)C1CCN(C(=O)c2ccc(-c3cccc4nc(NC(=O)C5CC5)nn34)cc2)CC1 [Compound 274, 1-{4-[2-(Cyclopropanecarbonyl-amino)-[1,2,4]triazolo[1,5-a]pyridin-5-yl]-benzoyl}-piperidine-4-carboxylic acid amide]	501 to 1000	101 to 500
O=C(Nc1nc2cccc(-c3ccc(CN4CC[C@@H](O)C4)cc3)n2n1)C1CC1 [Compound 307, Cyclopropanecarboxylic acid {5-[4-((R)-3-hydroxy-pyrrolidin-1-ylmethyl)-phenyl]-[1,2,4]triazolo[1,5-a]pyridin-2-yl}-amide]	> 1000	101 to 500
CC1CC(C)CN(C(=O)Cc2ccc(-c3cccc4nc(NC(=O)C5CC5)nn34)cc2)C1 (stereo not drawn) [Compound 320, Cyclopropanecarboxylic acid (5-{4-[2-(3,5-dimethyl-piperidin-1-yl)-2-oxo-ethyl]-phenyl}-[1,2,4]triazolo[1,5-a]pyridin-2-yl)-amide]	101 to 500	101 to 500
O=C(Nc1nc2cccc(-c3ccc(C(=O)N4CCCC(C(=O)N5CCCCC5)C4)cc3)n2n1)C1CC1 (stereo not drawn) [Compound 290, Cyclopropanecarboxylic acid (5-{4-[3-(piperidine-1-carbonyl)-piperidine-1-carbonyl]-phenyl}-[1,2,4]triazolo[1,5-a]pyridin-2-yl)-amide]	> 1000	101 to 500
CN(C)C(=O)C1CN(C(=O)Cc2ccc(-c3cccc4nc(NC(=O)C5CC5)nn34)cc2)C1 [Compound 324, 1-(2-{4-[2-(Cyclopropanecarbonyl-amino)-[1,2,4]triazolo[1,5-a]pyridin-5-yl]-phenyl}-acetyl)-azetidine-3-carboxylic acid dimethylamide]	> 1000	> 1000
O=C(Nc1nc2cccc(-c3ccc(CNC4CC4)cc3)n2n1)C1CC1 [Compound 312, Cyclopropanecarboxylic acid [5-(4-cyclopropylaminomethyl-phenyl)-[1,2,4]triazolo[1,5-a]pyridin-2-yl]-amide]	101 to 500	101 to 500
CCN(CC)C1CCN(Cc2ccc(-c3cccc4nc(NC(=O)C5CC5)nn34)cc2)CC1 [Compound 247, Cyclopropanecarboxylic acid {5-[4-(4-diethylamino-piperidin-1-ylmethyl)-phenyl]-[1,2,4]triazolo[1,5-a]pyridin-2-yl}-amide]	> 1000	> 1000
CCN(CC)C(=O)C1CCCN(C(=O)c2ccc(-c3cccc4nc(NC(=O)C5CC5)nn34)cc2)C1 (stereo not drawn) [Compound 295, 1-{4-[2-(Cyclopropanecarbonyl-amino)-[1,2,4]triazolo[1,5-a]pyridin-5-yl]-benzoyl}-piperidine-3-carboxylic acid diethylamide]	> 1000	101 to 500
O=C(Nc1nc2cccc(-c3ccc(CN4C[C@@H]5C[C@H]4CO5)cc3)n2n1)C1CC1 [Compound 230, Cyclopropanecarboxylic acid (5-{4-[(1S,4S)-1-(2-oxa-5-aza-bicyclo[2.2.1]hept-5-yl)methyl]-phenyl}-[1,2,4]triazolo[1,5-a]pyridin-2-yl)-amide]	101 to 500	101 to 500
CC1(C)CN(Cc2ccc(-c3cccc4nc(NC(=O)C5CC5)nn34)cc2)C1 [Compound 314, Cyclopropanecarboxylic acid {5-[4-(3,3-dimethyl-azetidin-1-ylmethyl)-phenyl]-[1,2,4]triazolo[1,5-a]pyridin-2-yl}-amide]	> 1000	101 to 500
CN1CCN(C(=O)NCc2ccc(-c3cccc4nc(NC(=O)C5CC5)nn34)cc2)CC1 [Compound 308, 4-Methyl-piperazine-1-carboxylic acid 4-[2-(cyclopropanecarbonyl-amino)-[1,2,4]triazolo[1,5-a]pyridin-5-yl]-benzylamide]	> 1000	101 to 500
O=C(Nc1nc2cccc(-c3ccc(C(=O)N4CCC(O)(c5ccccc5)CC4)cc3)n2n1)C1CC1 [Compound 286, Cyclopropanecarboxylic acid {5-[4-(4-hydroxy-4-phenyl-piperidine-1-carbonyl)-phenyl]-[1,2,4]triazolo[1,5-a]pyridin-2-yl}-amide]	501 to 1000	101 to 500
CCOC1CCN(C(=O)c2ccc(-c3cccc4nc(NC(=O)C5CC5)nn34)cc2)CC1 [Compound 294, Cyclopropanecarboxylic acid {5-[4-(4-ethoxy-piperidine-1-carbonyl)-phenyl]-[1,2,4]triazolo[1,5-a]pyridin-2-yl}-amide]	> 1000	101 to 500
